The source of these data is EP1285918A1, “C7 Ester substituted taxanes as antitumor agents” (Florida State University Research Foundation, Inc., priority 2001, dated 2003).

The structures appear in SMILES notation. Like-named read-outs stand apart in the source and are kept apart here.

For data set [1], the system named is DU 145 Human Prostate Carcinoma Xenografts. To be noted: DU145; for Mean Score: tumor score 1 to 10, group mean. The protocol: (§1) Other antitumor compounds were similarly formulated. […] The dosing volume was 0.3 ml per 20 g mouse.
Male NCr-nude mice (implanted subcutaneously with 1 mm^3 DU145 prostate carcinoma fragments in the flank) were sorted into treatment groups of five mice each. […] Dosing was initiated on Day 1. The antitumor compounds were given i.v. at an estimated maximum tolerated dose (MTD) appropriate for each agent on a qd x 1 schedule (single administration of compound). […] The vehicle was administered i.v. to control mice in Group 1 on the qd x 1 schedule. The study was terminated on Day 91. Treatment groups are detailed in Table 5.
The mean days of survival is the number of days after which a neoplasm reached a size of 1.5 g and the animal was euthanized. A complete response is obtained if the tumor is not palpable at the end of the study. A partial response is obtained if the tumor shrinks to a size smaller than its size on Day 1 of the study. […]

For data set [2], the system named is A375 Human Melanoma Xenografts. Conditions: for Mean Score: tumor score 1 to 10, group mean. As for the experimental part: as §1
Female NCr-nude mice (implanted subcutaneously with 1 mm^3 A375 melanoma in the flank) were sorted into treatment groups of six mice each, except for the Taxotere group having seven mice each. […] Dosing was initiated on Day 1. The antitumor compounds were given i.v. at an estimated maximum tolerated dose (MTD) appropriate for each agent on a qd x 1 schedule (single administration of compound). […] Taxotere was given i.v. on a qd x 1 schedule at a dose of 70 mg/kg. The vehicle was administered i.v. to control mice in Group 1 on the qd x 1 schedule. Treatment groups are detailed in Table 9. The study was terminated on Day 60.
The results are summarized in Table 10 and include mean days of survival (MDS), number of toxic deaths, number of survivors, number of complete or partial responses, and number with stable disease. The mean days of survival is the number of days after which a tumor reached a size of 2.0 g and the animal was euthanized. A complete response is obtained if the tumor is not palpable at the end of the study. A partial response is obtained if the tumor shrinks to a size smaller than its size on Day 1 of the study. […]

Data set [3] concerns Panc-1 Human Pancreatic Carcinoma Xenografts. The protocol:
(§2) Other antitumor compounds were similarly formulated. […] The dosing volume was 0.3 mL per 20 g mouse.
Female NCr-nude mice (6-8 weeks of age, implanted subcutaneously with 1 mm^3 Panc-1 pancreatic carcinoma fragments in the flank) were sorted into treatment groups of six mice each. […] Dosing was initiated on Day 1. The antitumor compounds were given i.v. at an estimated maximum tolerated dose (MTD) appropriate for each agent on a qd x 1 schedule (single administration of compound). […] Taxotere was given i.v. at a dose of 70 mg/kg on a qd x 1 schedule. The vehicle was given i.v. to control mice in Group 1 in each test on Day 1 (qd x 1) schedule. Treatment groups are detailed in Table 12. The study was terminated on Day 63.
The mean days of survival is the number of days after which a neoplasm reached a size of 1.5 g and the animal was euthanized. A complete response is obtained if the tumor is not palpable at the end of the study. A partial response is obtained if the tumor shrinks to a size smaller than its size on Day 1 of the study.

In data set [4] the test system is VM46 Human Colon Carcinoma Xenografts. Conditions: for MDS (n): days until tumor reached 1.5 g. As for the experimental part: as §2
Female NCr-nude mice (6-8 weeks of age, implanted subcutaneously with 1 mm^3 VM46 colon carcinoma fragments in the flank) were sorted into treatment groups of six mice each. […] Dosing was initiated on Day 1. The antitumor compounds were given i.v. at an estimated maximum tolerated dose (MTD) appropriate for each agent on a qd x 1 schedule (single administration of compound). […] Taxotere was given i.v. at a dose of 70 mg/kg on a qd x 1 schedule. The vehicle was given i.v. to control mice in Group 1 in each test on Day 1 (qd x 1) schedule. Treatment groups are detailed in Table 13. The VM46 study ended on Day 64.
The results are summarized in table 14 and include mean days of survival (MDS), number of toxic deaths, number of survivors, number of complete or partial responses, and number with stable disease. The mean days of survival is the number of days after which a neoplasm reached a size of 1.5 g and the animal was euthanized. A complete response is obtained if the tumor is not palpable at the end of the study. A partial response is obtained if the tumor shrinks to a size smaller than its size on Day 1 of the study. […]

Where [5] appears, read: i.v. qd x 1 (mg/kg: Taxol 24, 1351 107.6, 1393 72.6, 1401 107.6, 1418 107.6, 1424 195.1), 5 mice/group, Day 91.
Setting [6] is: i.v. qd x 1 (mg/kg: Taxol 24, 1351 107.6, 1393 72.6, 1401 107.6, 1418 107.6, 1424 195.1).
[7] abbreviates: A375, i.v. qd x 1 (mg/kg: Taxol 24, 1351 107.6, 1393 72.6, 1401 107.6, 1418 107.6, 1424 195.1, Taxotere 70), Day 60.
Where [8] appears, read: A375, i.v. qd x 1 (mg/kg: Taxol 24, 1351 107.6, 1393 72.6, 1401 107.6, 1418 107.6, 1424 195.1, Taxotere 70).
The mark [9] stands for this setting: i.v. qd x 1 at estimated MTD, 6 mice/group, study end Day 63.
Setting [10] is: 107.6 mg/kg i.v. qd x 1, 6 mice/group, study end Day 64.
[11] abbreviates: Panc-1, i.v. qd x 1 (mg/kg: 1393 72.6, 1418 107.6), 6 mice/group, Day 63.
Setting [12] is: 72.6 mg/kg i.v. qd x 1, 6 mice/group, study end Day 64.
The mark [13] stands for this setting: 70 mg/kg i.v. qd x 1, 6 mice/group, study end Day 64.

For the compound `CCC(=O)O[C@H]1C[C@H]2OC[C@@]2(OC(C)=O)[C@H]2[C@H](OC(=O)c3ccccc3)[C@]3(O)C[C@H](OC(=O)[C@H](O)[C@H](C=C(C)C)NC(=O)OC(C)(C)C)C(C)=C([C@@H](O)C(=O)[C@]12C)C3(C)C` [Compound 1351], the mortality rate in data set [1] (1351 107.6 mg/kg i.v. qd x 1) amounted to 40%. The “weight loss in a number of the treated mice prior to their deaths” value in data set [1] (1351 107.6 mg/kg i.v. qd x 1) is listed as “over 20%”. Besides, the “MDS (n)” value in data set [1] (i.v. qd x 1 (mg/kg: Taxol 24, 1351 107.6, 1393 72.6, 1401 107.6, 1418 107.6, 1424 195.1), 5 mice/group, 1.5 g cut-off, Day 91) is recorded as 62.6 ± 17.5 (2) days; in data set [3] (i.v. qd x 1 at estimated MTD, 6 mice/group, study end Day 63, days until tumor reached 1.5 g) it was 42.5 ± 10.2 days; in data set [4] (setting [10]) it was 43.7 ± 3.4 (3) days. Moreover, the “Complete Response” value is reported as 0 in data set [1] (setting [5]), 0 in data set [2] (setting [7]), 1 in data set [3] (setting [9]) and 0 in data set [4] (setting [10]). For the same compound, the “Partial Response” value was 1 in data set [1] (setting [5]), 0 in data set [2] (setting [7]), 1 in data set [3] (setting [9]) and 1 in data set [4] (setting [10]). Besides, the “Stable Disease” value in data set [1] (setting [5]) is given as 0; in data set [2] (setting [7]), 0; in data set [3] (setting [9]), 2; in data set [4] (setting [10]), 2. Besides, the Survivors in data set [1] (setting [5]) is on record as 1; in data set [2] (setting [7]), 0; in data set [3] (setting [9]), 4; in data set [4] (setting [10]), 3. The “Mean Score” value in data set [1] (setting [6]) was 2.6 ± 1.5; in data set [2] (setting [8]), 0±0; in data set [3] (setting [9]), 5.7 ± 1.3; in data set [4] (setting [10]), 4.5 ± 1.4. For the same compound, the “mean group weight losses” value in data set [2] (mouse, in vivo, iv) is 20-30%; in data set [3] (mouse, in vivo, iv), 3-13%. For the same compound, the Toxic Deaths entry is listed as “no toxic deaths” in data set [3] (Panc-1, i.v. qd x 1 (mg/kg: Taxol 24, 1351 75.32, 1393 72.6, 1401 107.6, 1418 107.6, 1424 195.1), 6 mice/group); 0 in data set [3] (setting [9]); 0 in data set [4] (setting [10]); “no toxic deaths” in data set [4] (VM46, i.v. qd x 1 at estimated MTD, 6 mice/group). Besides, the tolerability entry in data set [3] (mouse, in vivo, iv) is reported as “well-tolerated”; in data set [4] (mouse, in vivo, iv), “quite well-tolerated”. Moreover, the “maximal mean group weight losses” value in data set [4] (mouse, in vivo, iv) is recorded as 3-14%.

Turning to `CCC(=O)O[C@H]1C[C@H]2OC[C@@]2(OC(C)=O)[C@H]2[C@H](OC(=O)c3ccccc3)[C@]3(O)C[C@H](OC(=O)[C@H](O)[C@@H](NC(=O)OC(C)(C)C)c4ccco4)C(C)=C([C@@H](O)C(=O)[C@]12C)C3(C)C` [Compound 1393, 3'-Desphenyl-3'-(2-furyl)-7-propionyl taxotere], the complete response rate in data set [1] (1393 72.6 mg/kg i.v. qd x 1) came out at 60%. Further, in data set [1] (setting [5]), the “Complete Response” value stood at 3, the “Partial Response” value was found to be 1 and the “Stable Disease” value stood at 0. For the same compound, the “Mean Score” value in data set [1] (setting [6]) came to 8 ± 1.5. Moreover, in data set [2] (setting [7]), the “Complete Response” value is listed as 0, the “Partial Response” value was 0, the “Stable Disease” value was 0 and the “Toxic Deaths” value is 0. Also, the “Mean Score” value in data set [2] (setting [8]) was 3±0. In data set [3] (setting [11]), this compound came in with a Complete Response of 1 and a Partial Responses of 4. Moreover, in data set [3] (setting [9]), the “Toxic Deaths” value is reported as 0. Moreover, in data set [4] (setting [12]), the “Complete Response” value is 1, the “Mean Score” value is listed as 3.2 ± 1.4, the “Partial Response” value stood at 0 and the “Stable Disease” value amounted to 0. In addition, in data set [4] (setting [12]), the “Toxic Deaths” value turned out to be 0 and the “MDS (n)” value is 46.2 ± 6.1 (5) days.

Take `CC(=O)O[C@@]12CO[C@@H]1C[C@H](O)[C@@]1(C)C(=O)[C@H](O)C3=C(C)[C@@H](OC(=O)[C@H](O)[C@@H](NC(=O)OC(C)(C)C)c4ccccc4)C[C@@](O)([C@@H](OC(=O)c4ccccc4)[C@H]21)C3(C)C` [docetaxel, reference compound]: the “MDS (n)” value in data set [2] (A375, i.v. qd x 1 (mg/kg: Taxol 24, 1351 107.6, 1393 72.6, 1401 107.6, 1418 107.6, 1424 195.1, Taxotere 70), 2.0 g cut-off, Day 60) is recorded as 21.5 ± 0.5 (7) days. In addition, in data set [2] (setting [7]), the “Complete Response” value came out at 0, the “Partial Response” value was determined as 0, the “Stable Disease” value amounted to 0 and the Survivors is reported as 0. For the same compound, the “Toxic Deaths” value in data set [2] (setting [7]) worked out at 0. In addition, in data set [2] (setting [8]), the “Mean Score” value is on record as 2±0. Besides, in data set [2] (A375, i.v. qd x 1 (mg/kg: Taxol 24, 1393 72.6, 1418 107.6, Taxotere 70)), the “survival extension compared to Group 1 controls” value worked out at 49%. For the same compound, in data set [4] (setting [13]), the “Complete Response” value came to 0, the “Mean Score” value turned out to be 2 ± 0, the “Partial Response” value was 0 and the “Stable Disease” value was found to be 0. In addition, in data set [4] (setting [13]), the Survivors came out at 0, the “Toxic Deaths” value is 0 and the “MDS (n)” value was 45.3 ± 3.6 (6) days. The MDS in data set [4] (VM46, i.v. qd x 1 (Taxol 24 mg/kg, Taxotere 70 mg/kg), 6 mice/group, 1.5 g cut-off, Day 64) is given as 45.3 days.
